This note sets out measurements from ChEMBL document CHEMBL1140610, “Matrix metalloproteinases (MMPs): chemical-biological functions and (Q)SARs” (Bioorg Med Chem, 2007).

By pIC50 is commonly meant the IC50 on a negative log10 scale, so that one unit is a factor of ten. Lower therefore signals a large IC50.

Structures are written as SMILES. pIC50: −log10 of the molar value.

The target of one assay is T1, Matrilysin (Homo sapiens, UniProt P09237).
T1 sequence (P09237 whole entry): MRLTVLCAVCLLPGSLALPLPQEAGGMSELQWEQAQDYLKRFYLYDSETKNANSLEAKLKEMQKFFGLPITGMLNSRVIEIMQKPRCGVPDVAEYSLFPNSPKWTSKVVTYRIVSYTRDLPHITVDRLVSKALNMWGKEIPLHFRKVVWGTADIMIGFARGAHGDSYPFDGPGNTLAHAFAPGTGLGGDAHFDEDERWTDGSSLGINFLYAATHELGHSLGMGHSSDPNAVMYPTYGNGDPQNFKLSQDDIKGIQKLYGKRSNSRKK
The note with it: read-out: log(1/IC50) (converted).

The next assay concerns the target Collagenase 3 (Homo sapiens, UniProt P45452).
The next assay deals with Neutrophil collagenase (Homo sapiens, UniProt P22894). The note with it: read-out: log(1/IC50) (converted).
Neutrophil collagenase, sequence (P22894 whole entry): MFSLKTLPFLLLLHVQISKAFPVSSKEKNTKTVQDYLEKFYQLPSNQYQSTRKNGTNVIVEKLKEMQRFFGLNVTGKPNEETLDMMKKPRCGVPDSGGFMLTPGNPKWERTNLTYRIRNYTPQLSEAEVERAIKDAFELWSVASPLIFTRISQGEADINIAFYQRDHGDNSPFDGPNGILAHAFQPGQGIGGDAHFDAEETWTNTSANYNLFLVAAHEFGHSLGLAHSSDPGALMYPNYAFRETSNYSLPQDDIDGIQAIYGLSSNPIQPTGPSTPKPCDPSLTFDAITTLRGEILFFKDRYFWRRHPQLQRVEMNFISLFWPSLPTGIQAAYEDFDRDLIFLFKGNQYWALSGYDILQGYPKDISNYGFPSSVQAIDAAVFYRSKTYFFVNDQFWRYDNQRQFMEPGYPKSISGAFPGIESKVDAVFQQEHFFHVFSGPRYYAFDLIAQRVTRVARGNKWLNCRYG

`CCOc1ccc(S(=O)(=O)N2CC(N3C(=O)CN(C)C3=O)C[C@@H]2C(=O)NO)cc1` (some centres not stated): on Matrilysin, the IC50 is 7590 nM.

Consider `CCCOc1ccc(S(=O)(=O)N2CC(N3C(=O)CN(C)C3=O)C[C@@H]2C(=O)NO)cc1` (some centres not stated), for which, at Matrilysin, the IC50 was 2570 nM.

On Collagenase 3, `COc1ccc(S(=O)(=O)N2CCN(C(=O)C(O)C(C)C)CC2C(=O)NO)cc1` (configuration not stated) had a negative-log IC50 (pIC50) of 9.00.

For `COc1ccc(S(=O)(=O)N2CCN(C(=O)c3nnsc3C)CC2C(=O)NO)cc1` (configuration not stated), at Collagenase 3, the pIC50 was 7.68.

`COCCOc1ccc(S(=O)(=O)N2CC(N3C(=O)CN(C)C3=O)C[C@@H]2C(=O)NO)cc1` (some centres not stated): the IC50 at Matrilysin was 9120 nM.

With `CN1CC(=O)N(C2C[C@H](C(=O)NO)N(S(=O)(=O)c3ccc(Oc4ccccc4)cc3)C2)C1=O` (some centres not stated), at Matrilysin, the IC50 was 309 nM.

`CN1CC(=O)N(C2C[C@H](C(=O)NO)N(S(=O)(=O)c3ccc(Oc4ccncc4)cc3)C2)C1=O` (some centres not stated): the IC50 at Matrilysin was 7410 nM.

As to `COCCOC(=O)N1CCC(C(C(=O)O)N(Cc2cccnc2)S(=O)(=O)c2ccc(-c3ccc(OC)cc3)cc2)CC1` (configuration not stated), the IC50 on Neutrophil collagenase is 3.24 nM. At Collagenase 3, this compound showed a pIC50 of 8.52.

Turning to `COc1ccc(S(=O)(=O)N2CCCN(C(=O)CNOC(=O)C(C)(C)C)CC2C(=O)NO)cc1` (configuration not stated), the pIC50 against Collagenase 3 is 7.80.

For `CC(C)COc1ccc(S(=O)(=O)N2CC(N3C(=O)CN(C)C3=O)C[C@@H]2C(=O)NO)cc1` (some centres not stated), at Matrilysin, the IC50 was 2290 nM.

For the compound `CCCCOc1ccc(S(=O)(=O)N2CC(N3C(=O)CN(C)C3=O)C[C@@H]2C(=O)NO)cc1` (some centres not stated), the IC50 at Matrilysin is 1580 nM.
